Measured values: ChEMBL document CHEMBL1151802, “Calyciphyllines N-P, alkaloids from Daphniphyllum calycinum” (J Nat Prod, 2009)

Key:
Type in all cases: functional, cell-based
P388 = assay: Cytotoxicity against mouse P388 cells
L1210 = assay: Cytotoxicity against mouse L1210 cells
KB = assay: Cytotoxicity against human KB cells

Structure (SMILES): COC(=O)[C@@H]1C[C@]23C4=NC[C@@H](C)[C@]45CC[C@@]2(C)[C@H](CCC2=C3[C@@H]1CC2)[C@H]5O [CALYCIPHYLLINE N]
- IC50 (P388): > 55 µg/mL
- IC50 (L1210): > 5 µg/mL
- IC50 (KB): > 5 µg/mL

Structure (SMILES): COC(=O)CC[C@@]12[C@@H]3NC4C([C@@H](O)C[C@@]45CCC[C@H]51)[C@]2(C)CC[C@@H]3C(C)C [CALYCIPHYLLINE O]
- IC50 (P388): > 55 µg/mL
- IC50 (L1210): > 5 µg/mL
- IC50 (KB): > 5 µg/mL
